Assay results from patent US5250283A, “Organic contrast agent analog and method of making same” (priority 1992, dated 1993).
Where a name gives a salt, the structure may show the parent alone.

Assay: Biliary excretion and bile flow after i.v. TFA-IOP (100 umol/kg) or IOP (100 in text, 104 umol/kg in tables) in rats
Settings: for Percentage of dose per kg. body wt.: rat bile; for Percentage of dose per kg. body wt. / Bile flow / Bile flow per kg b.w. / Bile flow per kg l.w. / Biliary excretion rate / Biliary excretion rate per kg b.w. / Biliary excretion rate per kg l.w. / umoles in bile sample: i.v.
Method: Tissues examined included liver, spleen, upper GI, lower GI, kidney, lung and heart. The length of each study was 90 minutes, during which time bile, urine and plasma samples were taken to monitor uptake and excretion. NMR relaxation rates for liver and plasma were also examined to note whether uptake of either compound might possible alter these parameters.

[1] = rat, period 10-0 min (pre-injection)

SMILES: CCC(Cc1c(I)cc(I)c(NC(=O)C(F)(F)F)c1I)C(=O)O (stereo not shown) [TFA-IOP, N-trifluoroacetyl-iopanoic acid]
- Percentage of dose per kg. body wt. (0-10 min): 6.48 PERCENTAGE OF DOSE per kg. bod
- Percentage of dose per kg. body wt. (10-20 min): 11.22 PERCENTAGE OF DOSE per kg. bod
- Percentage of dose per kg. body wt. (20-30 min): 13.78 PERCENTAGE OF DOSE per kg. bod
- Percentage of dose per kg. body wt. (30-40 min): 12.34 PERCENTAGE OF DOSE per kg. bod
- Percentage of dose per kg. body wt. (40-50 min): 12.30 PERCENTAGE OF DOSE per kg. bod
- Percentage of dose per kg. body wt. (50-60 min): 12.60 PERCENTAGE OF DOSE per kg. bod
- Percentage of dose per kg. body wt. (60-70 min): 7.73 PERCENTAGE OF DOSE per kg. bod
- Percentage of dose per kg. body wt. (70-80 min): 7.44 PERCENTAGE OF DOSE per kg. bod
- Percentage of dose per kg. body wt. (80-90 min): 6.37 PERCENTAGE OF DOSE per kg. bod
- Percentage of dose per kg. body wt. (period 10-0 min (pre-injection)): .70 PERCENTAGE OF DOSE per kg. bod
- Cmax at 1.5 h (rat, bile, iv, 100 umol/kg): 0.5 µM
- concentration at 0 h (rat, bile, iv, 100 umol/kg): 635 µM
- concentration at 5 min (rat, bile, iv, 100 umol/kg): 3010 µM
- concentration at 10 min (rat, bile, iv, 100 umol/kg): 3010 µM
- concentration at 0.25 h (rat, bile, iv, 100 umol/kg): 5780 µM
- concentration at 20 min (rat, bile, iv, 100 umol/kg): 5780 µM
- concentration at 25 min (rat, bile, iv, 100 umol/kg): 6440 µM
- concentration at 0.5 h (rat, bile, iv, 100 umol/kg): 6440 µM
- concentration at 35 min (rat, bile, iv, 100 umol/kg): 7800 µM
- concentration at 40 min (rat, bile, iv, 100 umol/kg): 7800 µM
- concentration at 50 min (rat, bile, iv, 100 umol/kg): 7640 µM
- concentration at 55 min (rat, bile, iv, 100 umol/kg): 8460 µM
- concentration at 1 h (rat, bile, iv, 100 umol/kg): 8460 µM
- concentration at 65 min (rat, bile, iv, 100 umol/kg): 5370 µM
- concentration at 70 min (rat, bile, iv, 100 umol/kg): 5370 µM
- concentration at 1.25 h (rat, bile, iv, 100 umol/kg): 5310 µM
- concentration at 80 min (rat, bile, iv, 100 umol/kg): 5310 µM
- concentration at 85 min (rat, bile, iv, 100 umol/kg): 4660 µM
- concentration at 1.5 h (rat, bile, iv, 100 umol/kg): 4660 µM
- dose excreted at 1.5 h (rat, bile, iv, 100 umol/kg): 40%
- Bile flow (rat, 0-10 min): .04071 mL/min
- Bile flow per kg b.w. (rat, 0-10 min): .09359 ml/min per kg b.w.
- Bile flow per kg l.w. (rat, 0-10 min): 3.127 ml/min per kg l.w.
- Biliary excretion rate (rat, 0-10 min): .123 µmol/min
- Biliary excretion rate per kg b.w. (rat, 0-10 min): .282 umoles/min per kg b.w.
- Biliary excretion rate per kg l.w. (rat, 0-10 min): 9.411 umoles/min per kg l.w.
- umoles in bile sample (rat, 0-10 min): 1.23 UMOLES
- Bile flow (rat, 10-20 min): .03675 mL/min
- Bile flow per kg b.w. (rat, 10-20 min): .08448 ml/min per kg b.w.
- Bile flow per kg l.w. (rat, 10-20 min): 2.823 ml/min per kg l.w.
- Biliary excretion rate (rat, 10-20 min): .212 µmol/min
- Biliary excretion rate per kg b.w. (rat, 10-20 min): .488 umoles/min per kg b.w.
- Biliary excretion rate per kg l.w. (rat, 10-20 min): 16.308 umoles/min per kg l.w.
- umoles in bile sample (rat, 10-20 min): 2.12 UMOLES
- Bile flow (rat, 20-30 min): .04050 mL/min
- Bile flow per kg b.w. (rat, 20-30 min): .09310 ml/min per kg b.w.
- Bile flow per kg l.w. (rat, 20-30 min): 3.111 ml/min per kg l.w.
- Biliary excretion rate (rat, 20-30 min): .261 µmol/min
- Biliary excretion rate per kg b.w. (rat, 20-30 min): .599 umoles/min per kg b.w.
- Biliary excretion rate per kg l.w. (rat, 20-30 min): 20.020 umoles/min per kg l.w.
- umoles in bile sample (rat, 20-30 min): 2.61 UMOLES
- Bile flow (rat, 30-40 min): .02992 mL/min
- Bile flow per kg b.w. (rat, 30-40 min): .06878 ml/min per kg b.w.
- Bile flow per kg l.w. (rat, 30-40 min): 2.298 ml/min per kg l.w.
- Biliary excretion rate (rat, 30-40 min): .233 µmol/min
- Biliary excretion rate per kg b.w. (rat, 30-40 min): .537 umoles/min per kg b.w.
- Biliary excretion rate per kg l.w. (rat, 30-40 min): 17.931 umoles/min per kg l.w.
- umoles in bile sample (rat, 30-40 min): 2.33 UMOLES
- Bile flow (rat, 40-50 min): .03047 mL/min
- Bile flow per kg b.w. (rat, 40-50 min): .07005 ml/min per kg b.w.
- Bile flow per kg l.w. (rat, 40-50 min): 2.34 ml/min per kg l.w.
- Biliary excretion rate (rat, 40-50 min): .233 µmol/min
- Biliary excretion rate per kg b.w. (rat, 40-50 min): .535 umoles/min per kg b.w.
- Biliary excretion rate per kg l.w. (rat, 40-50 min): 17.882 umoles/min per kg l.w.
- umoles in bile sample (rat, 40-50 min): 2.33 UMOLES
- Bile flow (rat, 50-60 min): .02817 mL/min
- Bile flow per kg b.w. (rat, 50-60 min): .06476 ml/min per kg b.w.
- Bile flow per kg l.w. (rat, 50-60 min): 2.164 ml/min per kg l.w.
- Biliary excretion rate (rat, 50-60 min): .238 µmol/min
- Biliary excretion rate per kg b.w. (rat, 50-60 min): .548 umoles/min per kg b.w.
- Biliary excretion rate per kg l.w. (rat, 50-60 min): 18.307 umoles/min per kg l.w.
- umoles in bile sample (rat, 50-60 min): 2.38 UMOLES
- Bile flow (rat, 60-70 min): .02721 mL/min
- Bile flow per kg b.w. (rat, 60-70 min): .06255 ml/min per kg b.w.
- Bile flow per kg l.w. (rat, 60-70 min): 2.09 ml/min per kg l.w.
- Biliary excretion rate (rat, 60-70 min): .146 µmol/min
- Biliary excretion rate per kg b.w. (rat, 60-70 min): .336 umoles/min per kg b.w.
- Biliary excretion rate per kg l.w. (rat, 60-70 min): 11.228 umoles/min per kg l.w.
- umoles in bile sample (rat, 60-70 min): 1.46 UMOLES
- Bile flow (rat, 70-80 min): .02653 mL/min
- Bile flow per kg b.w. (rat, 70-80 min): .06099 ml/min per kg b.w.
- Bile flow per kg l.w. (rat, 70-80 min): 2.038 ml/min per kg l.w.
- Biliary excretion rate (rat, 70-80 min): .141 µmol/min
- Biliary excretion rate per kg b.w. (rat, 70-80 min): .324 umoles/min per kg b.w.
- Biliary excretion rate per kg l.w. (rat, 70-80 min): 10.811 umoles/min per kg l.w.
- umoles in bile sample (rat, 70-80 min): 1.41 UMOLES
- Bile flow (rat, 80-90 min): .02586 mL/min
- Bile flow per kg b.w. (rat, 80-90 min): .05945 ml/min per kg b.w.
- Bile flow per kg l.w. (rat, 80-90 min): 1.986 ml/min per kg l.w.
- Biliary excretion rate (rat, 80-90 min): .121 µmol/min
- Biliary excretion rate per kg b.w. (rat, 80-90 min): .277 umoles/min per kg b.w.
- Biliary excretion rate per kg l.w. (rat, 80-90 min): 9.262 umoles/min per kg l.w.
- umoles in bile sample (rat, 80-90 min): 1.21 UMOLES
- Bile flow [1]: .02093 mL/min
- Bile flow per kg b.w. [1]: .04811 ml/min per kg b.w.
- Bile flow per kg l.w. [1]: 1.608 ml/min per kg l.w.
- Biliary excretion rate [1]: .013 µmol/min
- Biliary excretion rate per kg b.w. [1]: .031 umoles/min per kg b.w.
- Biliary excretion rate per kg l.w. [1]: 1.021 umoles/min per kg l.w.
- umoles in bile sample [1]: .13 UMOLES
